Data: patent publication US20200253926A1, “THERAPEUTIC COMBINATIONS” (SUPERSALUS, INC., priority 2019, published 2020)
Structures can show the parent of a compound that is named as a salt.

Columns and labels:
aortic rings = conditions: cited from earlier work
NO2 levels = conditions: compared with vehicle treated animals; cited from earlier work
H2S levels = conditions: compared to vehicle treated animals; cited from earlier work
[1] = Hygroscopicity by dynamic vapor sorption (DVS); type: physicochemical
Experimental: Zofenopril calcium was slurried in ACN. Two molar equivalents of HCl were added. The materials were allowed to slurry overnight. […] On DSC this material has an onset at 162° C. This is in contrast to DSC results for zofenopril calcium which has an onset of 250.3° C. […] On the sorption step up to 65% RH, the material gained 1.2% weight. Above this RH, the material gained an additional 36.9% weight. […] Most of the weight was lost on desorption with significant hysteresis.
Nicorandil free base was dissolved in acetone resulting in a clear solution. A molar equivalent of HCl was added stepwise following which there nucleation with rosettes of aciculars and blades that were birefringent. The resulting material was recovered and shown to be nicorandil HCl form A. The XRPD pattern for this sample is shown in FIG. 16. Based on the single crystal structure, nicorandil hydrochloride form A is anhydrous and contains one nicorandil cation and one chloride anion in the asymmetric unit. On the sorption step up to 75% RH, the material gained 0.5% weight. Above that it gained an additional 52% weight. Most of the weight was lost on desoption with significant hysteresis. The material recovered from DVS was shown by XRPD to be form A (FIG. 18). Solubility of nicorandil HCl form A was tested and shown to be >48 mg/mL which was the limit of the test.

physchem = type: physicochemical; conditions: for solubility: thermodynamic from solid
Experimental: The hygroscopicity of zofenopril sodium material A was tested using DVS.

[2] = following a 5 mg dose; expected value; cited from earlier work
portal vein rings = assay: In-vitro rat portal vein ring relaxation (isometric method); type: cell-based, Wistar rats; design: Emax: dose or concentration left out as unconfirmed
Experimental: The portal vein was recovered from Wistar rats weighing approximately 450 gm, and divided into vein segments. Segments were placed in a bath containing approximately 10 mL of Krebs buffer at pH˜7.4. The vehicle used for treatment was 0.2% DMSO. Portal vein rings were pre-contracted and incubated for 60 min at 32° C. Ring relaxation was measured after 10 minutes of exposure to the test compound(s). Chromakalim served as the positive control for the experiment. Ring relaxation was measured by the isometric method as gram changes. Relaxation of the vein rings in this assay are a function of both KATP channel agonization and NO response. In prior published work, about half of the relaxation response could be attributable to KATP channel agonization and half to a NO-mediated response. Each assay was run in duplicate.
Eight combinations of concentration of zofenopril and nicorandil were tested in the assay. These were 80 and 40 μM nicorandil, 100 and 50 μM zofenopril, 12.5 μM zofenopril+10 μM nicorandil, 12.5 μM zofenopril+20 μM nicorandil, 12.5 μM zofenopril+40 μM nicorandil, and 25 μM zofenopril+40 μM nicorandil.

[3] = test system: human umbilical artery segments; conditions: cited from earlier work
arterial rings = conditions: 100 μM zofenopril; cited from earlier work
isolated rat hearts = conditions: cited from earlier work

CC1(C)Oc2ccc(C#N)cc2C(N2CCCC2=O)C1O (stereo not drawn) [Chromakalim, chromakalim]
relaxation of aortic rings (aortic rings): near maximal relaxation

CCOC(=O)[C@H](CCc1ccccc1)N[C@@H](C)C(=O)N1[C@H](C(=O)O)C[C@@H]2CCC[C@@H]21 [Ramipril, ramipril]
plasma and myocardial tissue NO2 levels (NO2 levels): virtually no effect | plasma and myocardial tissue H2S levels (H2S levels): did not elevate

O=C(NCCO[N+](=O)[O-])c1cccnc1 [nicorandil HCl form A, nicorandil hydrochloride]
DVS additional weight gain above 75% RH ([1]; above 75% RH): 52 % weight | DVS weight gain on the sorption step up to 75% RH ([1]; up to 75% RH): 0.5 % weight | solubility (physchem): > 48 mg/mL

O=C(NCCO[N+](=O)[O-])c1cccnc1 [nicorandil]
Cmax [2]: 15 to 16 µM | relaxation response (portal vein rings; 40 μM nicorandil): maximal relaxation response | relaxation, % of maximum ([3]; 30 μM nicorandil): about 60% | relaxation ([3]; 100 μM nicorandil): maximal relaxation

C[C@H](CSC(=O)c1ccccc1)C(=O)N1C[C@@H](Sc2ccccc2)C[C@H]1C(=O)O [zofenopril sodium material A, zofenopril sodium]
pH of the solution at the end of the solubility (physchem; pH 10): 10 | solubility (physchem; pH 10, water): > 48 mg/mL

C[C@H](CSC(=O)c1ccccc1)C(=O)N1C[C@@H](Sc2ccccc2)C[C@H]1C(=O)O [zofenopril]
plasma and myocardial tissue NO2 levels (NO2 levels): significantly increased | relaxation response (arterial rings): maximal relaxation response | pre-ischemic coronary flow or contractile function (isolated rat hearts): little effect | reperfusion end diastolic pressure (EDP) and lactate dehydrogenase (LDH) release (isolated rat hearts; reversed by glyburide and 5-HD): significantly reduced | reperfusion function (isolated rat hearts; reversed by glyburide and 5-HD): significantly improved | relaxation, % of the positive control (portal vein rings; 50 μM zofenopril): 60% | relaxation, % of the positive control (portal vein rings; 100 μM zofenopril, positive control chromakalim, 10 min exposure): about 85% | Emax (portal vein rings; Rattus norvegicus, read-out: relaxation, % of the maximum response for zofenopril): ~70% | maximal response, relaxation of aortic rings (aortic rings): 89% | plasma and myocardial tissue H2S levels (H2S levels): directly elevating plasma and myocardial tissue H2S levels

zofenopril calcium chloride [Zofenopril calcium chloride form A]
DVS additional weight gain above 65% RH ([1]; above 65% RH, equilibration timed out at all steps): 36.9 % weight | DVS weight gain on the sorption step up to 65% RH ([1]; up to 65% RH): 1.2 % weight
